Experimental data published in patent EP4722211A1, “FGFR2/3 SELECTIVE INHIBITOR, PHARMACEUTICAL COMPOSITION AND USE THEREOF” (Changchun Genescience Pharmaceutical Co., Ltd., priority 2023, dated 2024).
Read-outs that look alike come from different tables or passages of the source.

Assays:
[1] = target: T1, FGFR3 (Homo sapiens, UniProt P22607); assay: Kinase inhibitory activity by HTRF method (FGFR3); assay type: biochemical; conditions: highest concentration 3000 nM, 10 concentrations, duplicate
T1 construct: purchased Invitrogen PR4631B
T1 sequence (P22607 23-806): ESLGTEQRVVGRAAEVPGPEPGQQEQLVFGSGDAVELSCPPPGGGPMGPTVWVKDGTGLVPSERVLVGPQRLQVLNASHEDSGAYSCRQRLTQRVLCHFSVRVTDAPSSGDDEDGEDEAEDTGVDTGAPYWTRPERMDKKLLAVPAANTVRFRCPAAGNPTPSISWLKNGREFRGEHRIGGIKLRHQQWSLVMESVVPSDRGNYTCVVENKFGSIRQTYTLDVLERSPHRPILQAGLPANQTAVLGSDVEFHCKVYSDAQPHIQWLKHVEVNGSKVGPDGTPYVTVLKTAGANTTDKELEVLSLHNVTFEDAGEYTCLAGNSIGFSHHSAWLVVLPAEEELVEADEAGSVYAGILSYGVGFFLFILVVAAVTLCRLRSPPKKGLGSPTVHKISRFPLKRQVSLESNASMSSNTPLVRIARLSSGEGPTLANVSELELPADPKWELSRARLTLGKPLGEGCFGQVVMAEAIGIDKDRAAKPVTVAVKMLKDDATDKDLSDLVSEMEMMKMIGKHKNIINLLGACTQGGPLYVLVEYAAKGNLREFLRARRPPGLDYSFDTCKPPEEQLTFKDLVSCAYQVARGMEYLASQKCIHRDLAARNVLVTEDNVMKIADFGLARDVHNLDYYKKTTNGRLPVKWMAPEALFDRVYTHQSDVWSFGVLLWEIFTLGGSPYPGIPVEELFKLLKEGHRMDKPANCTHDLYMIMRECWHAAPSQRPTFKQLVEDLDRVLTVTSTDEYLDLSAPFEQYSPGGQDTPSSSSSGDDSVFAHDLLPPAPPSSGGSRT
Protocol: (§1) The inhibitory activity of the compounds on FGFR1 and FGFR3 kinases was tested by HTRF method. The highest concentration tested was 3000 nM, which was three-fold diluted to give 10 concentrations. The test was duplicated. […]

[2] = target: T2, FGFR1 (Homo sapiens, UniProt P11362); assay: Kinase inhibitory activity by HTRF method (FGFR1); assay type: biochemical; conditions: highest concentration 3000 nM, 10 concentrations, duplicate
T2 construct: purchased Invitrogen PR4660A
T2 sequence (P11362 22-822): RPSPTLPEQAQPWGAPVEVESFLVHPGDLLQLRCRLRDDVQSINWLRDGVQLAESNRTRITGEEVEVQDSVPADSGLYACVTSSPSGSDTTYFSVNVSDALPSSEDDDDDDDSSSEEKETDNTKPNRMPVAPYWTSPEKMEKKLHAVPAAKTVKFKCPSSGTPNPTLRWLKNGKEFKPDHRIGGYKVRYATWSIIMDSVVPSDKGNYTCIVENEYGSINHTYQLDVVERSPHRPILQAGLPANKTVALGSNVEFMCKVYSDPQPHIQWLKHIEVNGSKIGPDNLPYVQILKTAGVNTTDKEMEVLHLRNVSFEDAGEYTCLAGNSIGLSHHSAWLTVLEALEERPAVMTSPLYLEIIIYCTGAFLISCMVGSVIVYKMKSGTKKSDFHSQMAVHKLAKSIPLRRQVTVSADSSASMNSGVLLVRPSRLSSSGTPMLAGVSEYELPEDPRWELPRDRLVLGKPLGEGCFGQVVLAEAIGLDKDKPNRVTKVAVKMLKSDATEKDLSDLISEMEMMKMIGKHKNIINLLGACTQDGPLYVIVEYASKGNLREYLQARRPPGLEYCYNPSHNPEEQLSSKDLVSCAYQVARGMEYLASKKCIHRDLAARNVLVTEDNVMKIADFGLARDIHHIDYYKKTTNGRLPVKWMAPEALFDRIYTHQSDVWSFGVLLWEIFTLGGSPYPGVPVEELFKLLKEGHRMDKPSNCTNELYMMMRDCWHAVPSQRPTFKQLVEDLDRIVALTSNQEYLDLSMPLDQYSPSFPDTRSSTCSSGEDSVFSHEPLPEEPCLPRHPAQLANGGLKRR
Protocol: as §1

[3] = tested on: Ba/F3-FGFR3 cells; assay: Cell proliferation inhibition, CTG method (Ba/F3-FGFR3); assay type: cell-based; conditions: 72 hrs
Protocol: (§2) The CTG method was used to detect the inhibitory effect of the compound on the proliferation of Ba/F3-FGFR1, Ba/F3-FGFR2, Ba/F3-FGFR3, and Ba/F3-FGFR4 cells. The highest concentration tested was 3000 nM, which was three-fold diluted to give 10 concentrations. The test was duplicated.
• a) Ba/F3-FGFR1, Ba/F3-FGFR2, Ba/F3-FGFR3, and Ba/F3-FGFR4 were cultured to exponential growth period for later use. Complete medium: RPMI1640 medium, 10% FBS, 1% GlutaMAX and P/S, 10 ng/mL FGF1, 10 µg/mL Heparin,10 µM 2-mercaptoethanol, 2 µg/mL puromycin. • b) The stock solution of the compound of 3000 nM was diluted into a 384 cell culture plate using the ECHO liquid handling station, and centrifuged at 1000 g for 1 min. • c) The cells were digested. 30 µL of Ba/F3-FGFR1, Ba/F3-FGFR2, Ba/F3-FGFR3, or Ba/F3-FGFR4 (500/well) was uniformly seeded in a 384-well black-edge cell culture plate containing the compound, having the wells at the edge blocked with 50 µL PBS, and cultured in an incubator with CO2 at 37°C for 72 hrs. • d) 30 µL of Cell-Titer-Glo reagent was added to each well, shaken and mixed evenly on a shaker, and then incubated at 37°C for 30 min. Then the signal was detected on a microplate reader after the signal was stable.

[4] = tested on: Ba/F3-FGFR1 cells; assay: Cell proliferation inhibition, CTG method (Ba/F3-FGFR1); assay type: cell-based; conditions: 72 hrs
Protocol: as §2
(§3) • a) Ba/F3-FGFR1, Ba/F3-FGFR2, Ba/F3-FGFR3, and Ba/F3-FGFR4 were cultured to exponential growth period for later use. […] 30 µL of Ba/F3-FGFR1, Ba/F3-FGFR2, Ba/F3-FGFR3, or Ba/F3-FGFR4 (500/well) was uniformly seeded in a 384-well black-edge cell culture plate containing the compound, having the wells at the edge blocked with 50 µL PBS, and cultured in an incubator with CO2 at 37°C for 72 hrs. • d) 30 µL of Cell-Titer-Glo reagent was added to each well, shaken and mixed evenly on a shaker, and then incubated at 37°C for 30 min. Then the signal was detected on a microplate reader after the signal was stable.

[5] = tested on: Ba/F3-FGFR2 cells; assay: Cell proliferation inhibition, CTG method (Ba/F3-FGFR2); assay type: cell-based; conditions: 72 hrs
Protocol: as §2, §3

[6] = tested on: Ba/F3-FGFR4 cells; assay: Cell proliferation inhibition, CTG method (Ba/F3-FGFR4); assay type: cell-based; conditions: 72 hrs
Protocol: as §2, §3

[7] = Pharmacokinetic study in SD rats after oral gavage, plasma by LC/MS/MS; assay type: in vivo; conditions: rat, 2 mg/kg, 2mpk; for AUC(0-inf): read-out: AUCINF_pred; for MRT inf: read-out: MRTINF_pred
Protocol: The SD rats were used as test animals. The drug concentration in plasma at different time points was determined by LC/MS/MS method after the compound of the present invention was administered to the SD rats by oral gavage. The pharmacokinetic behavior of the compound of the present invention in SD rats was studied and the pharmacokinetic characteristics were evaluated.
24 SD Rat rats (female:male 1:1), purchased from Shanghai Ji Hui Laboratory Animal Breeding Co., Ltd., animal production license SCXK (Shanghai) 2017-0012, were divided into 6 groups.
The prescription was 5% DMSO + 60% PEG300 + 35% glucose aqueous solution. A proper amount of the representative compound of the present invention (converted according to the purity and salt coefficient) was weighed. A prescribed amount of DMSO was added, and a clear and transparent solution was obtained by vortex. Then a prescribed amount of PEG300 was added, and mixed by vortex. Then, a prescribed amount of a glucose aqueous solution was added. A 0.6 mg/mL or 2 mg/mL solution was obtained. During the preparation, if a solution cannot be obtained, ultrasonication in a water bath at a temperature not higher than 60°C can be performed to facilitate the dissolution.
Rats were administered by oral gavage (2mpk) after fasting for one night.
At 15 min, 30 min, 1 hr, 2 hrs, 4 hrs, 6 hrs, 8 hrs, and 24 hrs after administration, about 30 µL blood samples were collected into an anticoagulation tube containing the anticoagulant EDTA-K2, and centrifuged within 30 minutes to obtain the plasma. The whole blood sample was placed on wet ice before centrifugation. All of the collected plasma samples were stored on dry ice or at a temperature not higher than -70°C before analysis and detection. Liquid chromatography-tandem mass spectrometry (LC/MS/MS) was used to determine the original drug concentration in the plasma and the administered solution.

[8] = both sexes, Sprague-Dawley (SD)

Row | IC50 [3] [nM] | IC50 [4] [nM] | IC50 [5] [nM] | IC50 [6] [nM] | Structure (SMILES) | also measured
1 | – | – | – | – | CC(Oc1ccc2[nH]nc(-c3ccc(S(C)(=N)=O)nc3)c2n1)c1c(Cl)cncc1Cl (single isomer, unassigned) [Cpd-01C, (5-(5-(1-(3,5-dichloropyridin-4-yl)ethoxy)-1H-pyrazolo[4,3-b]pyridin-3-yl)pyridin-2-yl)(imino)(methyl)-λ^6-sulfonyl ketone] | IC50 [1]: 4.8 nM; IC50 [2]: 34.8 nM
2 | – | – | – | – | CC(Oc1ccc2[nH]nc(-c3ccc(S(C)(=N)=O)nc3)c2n1)c1c(Cl)cncc1Cl (single isomer, unassigned) [Cpd-01D, (5-(5-(1-(3,5-dichloropyridin-4-yl)ethoxy)-1H-pyrazolo[4,3-b]pyridin-3-yl)pyridin-2-yl)(imino)(methyl)-λ^6-sulfonyl ketone] | IC50 [1]: 6.2 nM; IC50 [2]: 36.1 nM
3 | 5.06 | 23.9 | – | – | C[C@@H](Oc1ccc2[nH]nc(-c3ccc(C4=CCS(=O)(=O)CC4)nc3)c2n1)c1c(Cl)cncc1Cl [Cpd-02A, (R)-4-(5-(5-(1-(3,5-dichloropyridin-4-yl)ethoxy)-1H-pyrazolo[4,3-b]pyridin-3-yl)pyridin-2-yl)-3,6-dihydro-2H-thiopyran 1,1-dioxide] | –
4 | 13.6 | 123 | 16.7 | 80.4 | C[C@@H](Oc1ccc2[nH]nc(-c3ccc(N4CCC(C(C)(C)O)CC4)nc3)c2n1)c1c(Cl)cncc1Cl [Cpd-124A] | –
5 | 9.7 | 31.4 | 10.6 | 76.3 | Cc1nn(C2CC2)cc1-c1ccc(-c2n[nH]c3ccc(O[C@H](C)c4c(Cl)cncc4Cl)nc23)cn1 [Cpd-145A, (R)-3-(6-(1-cyclopropyl-3-methyl-1H-pyrazol-4-yl)pyridin-3-yl)-5-(1-(3,5-dichloropyridin-4-yl)ethoxy)-1H-pyrazolo[4,3-b]pyridine] | AUC(0-t) [7, 8]: 1570 ng·h/mL; Cmax [7, 8]: 186 ng/mL; Tmax [7, 8]: 2 h; half-life [7, 8]: 4 h; AUC(0-inf) [7, 8]: 1610 ng·h/mL; MRT inf [7, 8]: 5.6 h
6 | 15.4 | 98.3 | 11.7 | 237 | Cc1nn(CC(C)(C)O)c(C)c1-c1ncc(-c2n[nH]c3ccc(O[C@H](C)c4c(Cl)cncc4Cl)nc23)cc1F [Cpd-161A, (R)-1-(4-(5-(5-(1-(3,5-dichloropyridin-4-yl)ethoxy)-1H-pyrazolo[4,3-b]pyridin-3-yl)-3-fluoropyridin-2-yl)-3,5-dimethyl-1H-pyrazol-1-yl)-2-methyl-2-propanol] | –
7 | 4 | 32.6 | 3.6 | 29.8 | Cc1nn(CC(C)(C)O)cc1-c1ncc(-c2n[nH]c3ccc(O[C@H](C)c4c(Cl)cncc4Cl)nc23)cc1F [Cpd-162A, (R)-1-(4-(5-(5-(1-(3,5-dichloropyridin-4-yl)ethoxy)-1H-pyrazolo[4,3-b]pyridin-3-yl)-3-fluoropyridin-2-yl)-3-methyl-1H-pyrazol-1-yl)-2-methyl-2-propanol] | –
8 | 4.9 | 31.5 | 3.5 | 72.9 | Cc1cc2[nH]nc(-c3ccc(-c4c(C)nn(CC(C)(C)O)c4C)nc3)c2nc1O[C@H](C)c1c(Cl)cncc1Cl [Cpd-175A, (R)-1-(4-(5-(5-(1-(3,5-dichloropyridin-4-yl)ethoxy)-6-methyl-1H-pyrazolo[4,3-b]pyridin-3-yl)pyridin-2-yl)-3,5-dimethyl-1H-pyrazol-1-yl)-2-methyl-2-propanol] | AUC(0-t) [7, 8]: 359 ng·h/mL; Cmax [7, 8]: 82.6 ng/mL; Tmax [7, 8]: 2 h; half-life [7, 8]: 3.2 h; AUC(0-inf) [7, 8]: 508 ng·h/mL; MRT inf [7, 8]: 3.5 h
9 | 11.9 | 8.1 | 4 | 277 | CCN1CCN(c2ccc(Nc3cc(N(C)C(=O)Nc4c(Cl)c(OC)cc(OC)c4Cl)ncn3)cc2)CC1 [Infigratinib, reference compound] | AUC(0-t) [7, 8]: 103 ng·h/mL; Cmax [7, 8]: 22.2 ng/mL; Tmax [7, 8]: 3 h; half-life [7, 8]: 1.1 h; AUC(0-inf) [7, 8]: 106 ng·h/mL; MRT inf [7, 8]: 3.1 h

Row | Structure (SMILES) | IC50 [3] [nM] | IC50 [4] [nM] | IC50 [5] [nM] | IC50 [6] [nM] | also measured
10 | C[C@@H](Oc1ccc2[nH]nc(-c3cnc(C4=CCS(=O)(=O)CC4)c(F)c3)c2n1)c1c(Cl)cncc1Cl [Cpd-03A, (R)-4-(5-(5-(1-(3,5-dichloropyridin-4-yl)ethoxy)-1H-pyrazolopyridin-3-yl)-3-fluoropyridin-2-yl)-3,6-dihydro-2H-thiapyran 1,1-dioxide] | 4.2 | 14.2 | 8.4 | 33.8 | AUC(0-t) [7]: 86.2 ng·h/mL; Cmax [7]: 24.4 ng/mL; Tmax [7]: 1 h; half-life [7]: 1.5 h; AUC(0-inf) [7]: 91.5 ng·h/mL; MRT inf [7]: 2 h
11 | C[C@@H](Oc1ccc2[nH]nc(-c3ccc(N4CCN(S(C)(=O)=O)CC4)nc3)c2n1)c1c(Cl)cncc1Cl [Cpd-119A] | 7.3 | 45.9 | – | – | –
12 | Cc1nn(CC(C)(C)O)c(C)c1-c1ccc(-c2n[nH]c3ccc(O[C@H](C)c4c(Cl)cncc4Cl)nc23)cn1 [Cpd-158A] | 2.6 | 23.6 | 2 | 55.4 | –
